Laboratory results taken from patent US20170105951A1, “COMBINATION THERAPY WITH THIOCOLCHICINE DERIVATIVES” (Abraxis BioScience, LLC, priority 2009, published 2017).

Legend:
[1] = tested on: human colon (HT29) tumors; experiment: Subcutaneous HT29 colon tumor xenograft, ABI-011 vs CA4P (Example 3); format: in vivo, athymic nude mice; conditions: CA4P 200 mg/kg, qd×4, IV
Method: (§1) Methods: The antiangiogenic and VDA effects of ABI-011 were examined in vitro using tubule formation assay with human umbilical vein endothelial cells (HUVEC) and in vivo using the standard chick embryonic chorioallantoic membrane (CAM) assay with 3-day old embryos (n=18). The shell-less quail embryonic CAM assay was used to determine the time course of VDAs (ABI-011 vs. combretastatin A4 Phosphate [CA4P]). Quail embryos (n=36) were exposed to ABI-011 (1 to 16 μg/ml) on day 7 and digital CAM images were acquired over a 60 min period for scoring VDA. Subcutaneous human colon (HT29) tumors were grown in athymic nude mice and treated intravenously (IV) with ABI-011 (20-40 mg/kg; q4d×3, IV) or CA4P (200 mg/kg; qd×4, IV). The animal weights and tumor measurements were recorded three times weekly and adverse observations recorded.

[2] = tested on: quail embryonic CAM vasculature; experiment: Shell-less quail embryonic CAM assay, vascular disrupting activity; format: in vivo
Method: as §1

[3] = tested on: human PC3 prostate cancer xenograft; experiment: Subcutaneous PC3 prostate tumor xenograft, tumor growth inhibition; format: in vivo, athymic nude mice; conditions: Avastin 8 mg/kg 2x/wk
Method: (§2) Methods: Subcutaneous human breast (MDA-MB-231), colon (HT29) and prostate (PC3) tumors were grown in athymic nude mice and treated intravenously (IV) with sub-optimal dose of ABI-011 alone at 20 mg/kg (q4d×3, q4d×2, or qd×1) and in combination with nab-paclitaxel (5 mg/kg, q4d×3, IV) or bevacizumab (8 mg/kg, 2×wkly, IP). The effect of dose, schedule, and sequence of combination regimen on therapeutic efficacy was tested. ABI-011 was administered 24 h before, concurrent with, or 24 h after nab-paclitaxel or bevacizumab treatment.

[4] = tested on: human HT29 colon cancer xenograft; experiment: Subcutaneous HT29 colon tumor xenograft, antitumor activity (Example 1); format: in vivo, athymic nude mice; conditions: Avastin 8 mg/kg 2x/wk
Method: as §2

[5] = Body weight change in PC3 tumor-bearing mice; format: in vivo, athymic nude mice; conditions: Avastin 8 mg/kg 2x/wk
Method: as §2

COc1ccc(/C=C\c2cc(OC)c(OC)c(OC)c2)cc1OP(=O)(O)O [CA4P, combretastatin A4 Phosphate]
Antitumor efficacy, in words [1]: ineffective
Vascular disrupting activity (VDA), in words ([2]; quail CAM, at concentrations much higher than the effective dose of ABI-011): only modest VDA
IC50, vascular disrupting activity (VDA) ([2]; quail embryonic CAM, scored over 60 min): 13.1 µg/mL
LD50, embryonic mortalities ([2]; quail embryos): 12.8 µg/mL

Avastin: anti-VEGF antibody (bevacizumab)
TGI, tumor growth inhibition on day 23 [3]: 52.9%
TGI, tumor growth inhibition on day 23 [4]: 75.3%
Three-TDT [4]: 19.3 days
BWC, percent body weight change on day 21 [5]: −24.6%
